Measured values: patent US4472404A, “8-Quinolinyl carbamates and their use as urinary tract antimicrobials” (priority 1982, dated 1984)
Read-outs that look alike come from different tables or passages of the source.

Columns and labels:
Assay type in all cases: cell-based
Streptococcus mutans = assay: Agar-plate minimum inhibitory concentration (Example 12); settings: read-out: Minimum Inhibitory Concentration
Method: (§1) The test compound was added to molten agar as a solution (when conveniently soluble in a solvent such as dimethylformamide) or a suspension forming a mixture having a concentration of 0.05 percent (500 ppm). The mixture was stirred and poured into plates to harden. When hardened, the plates were inoculated with various bacteria and fungi. The bacteria-inoculated plates were incubated at 37° C. for 24 hours, while the fungi-inoculated plates were incubated for about 72-120 hours. Following incubation, the plates were examined for growth or inhibition of the respective organisms.
(§2) After the initial readings, compounds showing sufficient activity were re-tested at various concentrations to determine the minimum inhibitory concentration (in ppm) of the compounds of the invention against the various bacteria and fungi tested.

Aspergillus niger = assay: as above; settings: read-out: Minimum Inhibitory Concentration
Method: as §1, §2

Candida albicans = assay: as above; settings: read-out: Minimum Inhibitory Concentration
Method: as §1, §2

[1] = test system: Trichophyton mentagrophytes; assay: as above; settings: read-out: Minimum Inhibitory Concentration
Method: as §1, §2

Salmonella typhosa = assay: as above; settings: Salmonella enterica, read-out: Minimum Inhibitory Concentration
Method: as §1, §2

Ceratocystis ips = assay: as above; settings: read-out: Minimum Inhibitory Concentration
Method: as §1, §2

Bacillus subtilis = assay: as above; settings: read-out: Minimum Inhibitory Concentration
Method: as §1, §2

Candida pelliculosa = assay: as above; settings: Hansenula anomala, read-out: Minimum Inhibitory Concentration
Method: as §1, §2

[2] = test system: Klebsiella pneumoniae M-6; assay: Minimum inhibitory concentration, urinary tract organisms (Example 13)
Method: as §1, §2
(§3) Following a procedure substantially the same as that described in Example 12, the minimum inhibitory concentration for the compounds described herein was determined for various organisms representative of those commonly associated with urinary tract infections.
(§4) The organisms used in this procedure and the abbreviations designated in Table 3 are as follows: […]

[3] = test system: Pseudomonas aeruginosa ATCC 7700; assay: as above
Method: as §1, §2, §3, §4

[4] = test system: Escherichia coli ATCC 4157; assay: as above
Method: as §1, §2, §3, §4

[5] = test system: Escherichia coli ATCC 25922; assay: as above
Method: as §1, §2, §3, §4

[6] = test system: Pseudomonas aeruginosa ATCC 10145; assay: as above
Method: as §1, §2, §3, §4

[7] = test system: Escherichia coli ATCC 9723; assay: as above
Method: as §1, §2, §3, §4

[8] = test system: Staphylococcus aureus ATCC 25923; assay: as above
Method: as §1, §2, §3, §4

[9] = test system: Klebsiella pneumoniae M-1; assay: as above
Method: as §1, §2, §3, §4

[10] = test system: Pseudomonas aeruginosa PRD-10; assay: as above
Method: as §1, §2, §3, §4

Proteus mirabilis 470/1 = assay: as above
Method: as §1, §2, §3, §4

[11] = test system: Escherichia coli ATCC 11229; assay: as above
Method: as §1, §2, §3, §4

[12] = test system: Pseudomonas aeruginosa ATCC 27853; assay: as above
Method: as §1, §2, §3, §4

[13] = test system: Klebsiella pneumoniae M-2; assay: as above
Method: as §1, §2, §3, §4

[14] = test system: Klebsiella pneumoniae ATCC 23357; assay: as above
Method: as §1, §2, §3, §4

[15] = test system: Enterobacter aerogenes ATCC 13048; assay: as above; settings: Klebsiella aerogenes
Method: as §1, §2, §3, §4

Serratia marcescens M-1 = assay: as above
Method: as §1, §2, §3, §4

[16] = Salmonella typhosa, agar, 37° C., 24 hours
[17] = Ceratocystis ips, agar, 72-120 hours
[18] = Candida pelliculosa, agar, 72-120 hours
[19] = M6, Kp M-6, read-out: Minimum Inhibitory Concentration
[20] = ATCC7700, Pa 7700, read-out: Minimum Inhibitory Concentration
[21] = ATCC4157, Ec 4157, read-out: Minimum Inhibitory Concentration
[22] = ATCC25922, Ec 25922, read-out: Minimum Inhibitory Concentration
[23] = ATCC10145, Pa 10145, read-out: Minimum Inhibitory Concentration
[24] = ATCC9723, Ec 9723, read-out: Minimum Inhibitory Concentration
[25] = ATCC25923, Sa 25923, read-out: Minimum Inhibitory Concentration
[26] = M1, Kp M-1, read-out: Minimum Inhibitory Concentration
[27] = PRD10, Pa PRD-10, read-out: Minimum Inhibitory Concentration
[28] = Pm 470/1, read-out: Minimum Inhibitory Concentration
[29] = ATCC11229, Ec 11229, read-out: Minimum Inhibitory Concentration
[30] = ATCC27853, Pa 27853, read-out: Minimum Inhibitory Concentration
[31] = M2, Kp M-2, read-out: Minimum Inhibitory Concentration
[32] = ATCC23357, Kp 23357, read-out: Minimum Inhibitory Concentration
[33] = ATCC13048, Ea 13048, read-out: Minimum Inhibitory Concentration
[34] = M1, Sr M-1, read-out: Minimum Inhibitory Concentration
[35] = M1, read-out: Minimum Inhibitory Concentration

Measured: MIC

CCOC(=O)CNC(=O)Oc1ccc([N+](=O)[O-])c2cccnc12 [Example 5, Ethyl N-(((5-nitro-8-quinolinyl)oxy)carbonyl)glycinate]
75 µg/mL: [12]; [30]
> 500 µg/mL: Streptococcus mutans; agar, 37° C., 24 hours
25 µg/mL: [2]; [19] | [4]; [21] | [6]; [23] | [7]; [24] | [8]; [25] | [9]; [26] | [11]; [29] | [13]; [31] | [15]; [33]
5 µg/mL: Salmonella typhosa; [16] | Bacillus subtilis; agar, 37° C., 24 hours
100 µg/mL: Ceratocystis ips; [17] | [3]; [20]
10 µg/mL: [5]; [22] | Proteus mirabilis 470/1; [28] | [14]; [32]
50 µg/mL: Aspergillus niger; agar, 72-120 hours | Candida albicans; agar, 72-120 hours | [1]; agar, 72-120 hours | Candida pelliculosa; [18] | [10]; [27] | Serratia marcescens M-1; [34]

CCOC(=O)CNC(=O)Oc1ccc(Cl)c2cccnc12.CS(=O)(=O)O [Example 7, Ethyl N-(((5-chloro-8quinolinyl)oxy)carbonyl)glycinate methanesulfonic acid salt]
100 µg/mL: Serratia marcescens M-1; [34]
75 µg/mL: [6]; [23] | [9]; [26] | Proteus mirabilis 470/1; [28] | [13]; [31] | [14]; [32] | [15]; [33]
500 µg/mL: Streptococcus mutans; agar, 37° C., 24 hours
5 µg/mL: Bacillus subtilis; agar, 37° C., 24 hours
50 µg/mL: Aspergillus niger; agar, 72-120 hours | Candida albicans; agar, 72-120 hours | Ceratocystis ips; [17] | Candida pelliculosa; [18] | [2]; [19] | [4]; [21] | [7]; [24] | [11]; [29]
< 5 µg/mL: [8]; [25]
10 µg/mL: [1]; agar, 72-120 hours | Salmonella typhosa; [16]
250 µg/mL: [3]; [20] | [10]; [27] | [12]; [30]
25 µg/mL: [5]; [22]

CCOC(=O)CNC(=O)Oc1ccc(Cl)c2cccnc12.Cl [Example 8, Ethyl N-(((5-chloro-8-quinolinyl)oxy)carbonyl)glycinate hydrochloride salt]
1 µg/mL: Bacillus subtilis; agar, 37° C., 24 hours
100 µg/mL: [3]; [20] | [10]; [27] | [12]; [30]
> 500 µg/mL: Streptococcus mutans; agar, 37° C., 24 hours
75 µg/mL: [6]; [23] | Serratia marcescens M-1; [34]
25 µg/mL: [2]; [19] | [4]; [21] | [5]; [22] | [7]; [24] | [11]; [29]
10 µg/mL: Aspergillus niger; agar, 72-120 hours | Candida albicans; agar, 72-120 hours | [1]; agar, 72-120 hours | Candida pelliculosa; [18] | [8]; [25]
50 µg/mL: Salmonella typhosa; [16] | Ceratocystis ips; [17] | [9]; [26] | Proteus mirabilis 470/1; [28] | [13]; [31] | [14]; [32] | [15]; [33]

CCOC(=O)CNC(=O)Oc1cccc2cccnc12 [Example 9, Ethyl N-(((8-quinolinyl)oxy)carbonyl)glycinate]
5 µg/mL: Streptococcus mutans; agar, 37° C., 24 hours
500 µg/mL: [3]; [20] | [10]; [27]
250 µg/mL: [12]; [30]
50 µg/mL: [1]; agar, 72-120 hours | Salmonella typhosa; [16] | Candida pelliculosa; [18] | [6]; [23] | [14]; [32]
75 µg/mL: [2]; [19] | [4]; [21] | [5]; [22] | [7]; [24] | Proteus mirabilis 470/1; [28] | [11]; [29]
100 µg/mL: Aspergillus niger; agar, 72-120 hours | Candida albicans; agar, 72-120 hours | Ceratocystis ips; [17] | [9]; [26] | [13]; [31] | [15]; [33] | Serratia marcescens M-1; [34]
10 µg/mL: Bacillus subtilis; agar, 37° C., 24 hours | [8]; [25]

CNC(=O)Oc1c(Cl)cc(Cl)c2cccnc12 [Example 10, 5,7-Dichloro-8quinolinyl N-methylcarbamate]
10 µg/mL: Streptococcus mutans; 24 h | Aspergillus niger | Salmonella typhosa; TYPHOSA, 24 h | [4]; ATCC4157, read-out: Minimum Inhibitory Concentration | [5]; ATCC25922, read-out: Minimum Inhibitory Concentration | [6]; ATCC10145, read-out: Minimum Inhibitory Concentration | [7]; ATCC9723, read-out: Minimum Inhibitory Concentration | Proteus mirabilis 470/1; 470/1, read-out: Minimum Inhibitory Concentration | [11]; ATCC11229, read-out: Minimum Inhibitory Concentration | [14]; ATCC23357, read-out: Minimum Inhibitory Concentration
50 µg/mL: [1] | Ceratocystis ips | [3]; ATCC7700, read-out: Minimum Inhibitory Concentration | [12]; ATCC27853, read-out: Minimum Inhibitory Concentration
5 µg/mL: Candida albicans | Candida pelliculosa
0.5 µg/mL: Bacillus subtilis; 24 h
25 µg/mL: [2]; M6, read-out: Minimum Inhibitory Concentration | [9]; [35] | [10]; PRD10, read-out: Minimum Inhibitory Concentration | [13]; M2, read-out: Minimum Inhibitory Concentration | [15]; ATCC13048, read-out: Minimum Inhibitory Concentration | Serratia marcescens M-1; [35]
< 5 µg/mL: [8]; ATCC25923, read-out: Minimum Inhibitory Concentration
